Source: patent publication US20230113847A1, “[…] IMMUNE RESPONSE WITH CUPROUS COMPLEXES” (C LAB PHARMA INTERNATIONAL, S.A., priority 2020, published 2023)

Legend:
[1] = stated in description, relevance to route of administration
Lymphocytes = conditions: Day 28, twice daily administration; otherwise healthy subjects with chronic pain
Experimental: (§1) Ethics: This study was reviewed by the Natural Health Products Directorate (NHPD), Health Canada and a research ethics board. This study was conducted in accordance with the principles established in the Declaration of Helsinki and its subsequent amendments. Informed consent was obtained from each subject at the screening visit prior to any study related activities. The clinical trial was conducted at KGK Synergize Inc. (London, ON, Canada).
(§2) Sample Collection: As depicted in FIG. 1, blood was collected from participants on the initial screening (Day −1), the first day of administering the treatment composition (Day 0), and on Day 28. Collected blood was analyzed to determine the complete blood count (CBC), electrolyte composition, and liver enzymes composition according to standardized procedures at LifeLabs (London, ON, Canada).
(§3) Dosing Regimen: Each participant was randomly assigned an identifier code and placed in either the Cunermuspir or placebo treatment groups at a 1:1 ratio. Participants were given 2 capsules on Day 0 and instructed to take the contents sublingually with a small meal. Starting on Day 1, participants were instructed to take one capsule orally in the morning with breakfast, and one capsule orally between lunch and dinner, with food, for a total of 2 capsules daily over the course of the study. Participants were instructed to take all capsules with adequate, but not excessive, amounts of liquid.

Neutrophils = conditions: Day 28, twice daily administration; otherwise healthy subjects with chronic pain
Experimental: as §1, §2, §3

[2] = system: Neutrophil to Lymphocyte Ratio; conditions: Day 28, twice daily administration
Experimental: as §1, §2, §3

neuromuscular pain = conditions: Day 28 in comparison to Day 0; subjects with neuromuscular pain; twice daily administration; placebo group showed upward trend
From the text: as §3

Row | SMILES | pH of the complex [1] | lymphocyte numbers relative to the placebo group (Lymphocytes) | neutrophil numbers relative to the placebo group (Neutrophils) | neutrophil to lymphocyte ratio relative to the placebo group [2] | SQIR scores in Symptom, Impact and Function Domains (neuromuscular pain)
1 | NCC(=O)[O-].[Cu+] [Copper (I) glycinate, cuprous glycinate] | more neutral pH | – | – | – | –
2 | O=C(O)c1cccnc1.[Cu+] [Cu(I)NA2, cuprous nicotinic acid] | acidic pH | significant increase | significant decrease | significant decrease | decreased scores
